Measured values reported in patent publication US6906097B2, “8-azaprostaglandin analogs as agents for lowering intraocular pressure” (Allergan, Inc., priority 2002, dated 2005).

Tests used:
[1] = molecular target: T1, hEP3D (Homo sapiens, UniProt P43115); assay: Radioligand binding, hEP3D; details: [3H]PGE2 competition
T1 construct: expressed in transfected cells; host or cells: COS-7, transient transfection, plasma membrane fraction
T1 sequence (P43115 1-374 isoform P43115-4): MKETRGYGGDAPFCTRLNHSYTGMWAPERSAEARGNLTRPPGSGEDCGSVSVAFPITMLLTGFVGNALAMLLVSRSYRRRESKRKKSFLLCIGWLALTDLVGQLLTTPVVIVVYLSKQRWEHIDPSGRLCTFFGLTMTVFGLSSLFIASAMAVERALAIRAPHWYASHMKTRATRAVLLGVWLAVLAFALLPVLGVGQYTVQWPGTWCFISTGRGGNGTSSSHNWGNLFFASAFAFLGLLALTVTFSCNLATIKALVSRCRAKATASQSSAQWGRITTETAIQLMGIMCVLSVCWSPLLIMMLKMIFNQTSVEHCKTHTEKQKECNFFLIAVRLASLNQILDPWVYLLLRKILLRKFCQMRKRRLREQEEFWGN
Protocol: For radioligand binding on the transient transfectants, plasma membrane fraction preparation was as follows. COS-7 cells were washed with TME buffer, scraped from the bottom of the flasks, and homogenized for 30 sec using a Brinkman PT 10/35 polytron. TME buffer was added to achieve a final 40 ml volume in the centrifuge tubes. The composition of TME is […]; 10N HCl is added to achieve a pH of 7.4.
The cell homogenate was centrifuged at 19000 rpm for 20 min at 4° C. using a Beckman Ti-60 rotor. The resultant pellet was resuspended in TME buffer to give a final 1 mg/ml protein concentration, as determined by Biorad assay. Radioligand binding assays were performed in a 200 μl volume.
The binding of [^3H] PGE2 (specific activity 165 […]) at EP3D, receptors and [^3H]-SQ29548 (specific activity 41.5 Ci mmol^−1) at TP receptors were determined in duplicate in at least three separate experiments. Radiolabeled PGE2 was purchased from Amersham, radiolabeled SQ29548 was purchased from New England Nuclear. […] Competition studies were performed using a final concentration of 2.5 or 5 nM [^3H]-PGE2, or 10 nM [^3H]-SQ 29548 and non-specific binding determined with 10 μM of the respective unlabeled prostanoid. […]

[2] = molecular target: T2, hEP3A (Homo sapiens, UniProt P43115); assay: Functional data, human recombinant EP3A receptor stable transfectants; assay type: cell-based
T2 construct: expressed in transfected cells
T2 sequence (P43115 1-390): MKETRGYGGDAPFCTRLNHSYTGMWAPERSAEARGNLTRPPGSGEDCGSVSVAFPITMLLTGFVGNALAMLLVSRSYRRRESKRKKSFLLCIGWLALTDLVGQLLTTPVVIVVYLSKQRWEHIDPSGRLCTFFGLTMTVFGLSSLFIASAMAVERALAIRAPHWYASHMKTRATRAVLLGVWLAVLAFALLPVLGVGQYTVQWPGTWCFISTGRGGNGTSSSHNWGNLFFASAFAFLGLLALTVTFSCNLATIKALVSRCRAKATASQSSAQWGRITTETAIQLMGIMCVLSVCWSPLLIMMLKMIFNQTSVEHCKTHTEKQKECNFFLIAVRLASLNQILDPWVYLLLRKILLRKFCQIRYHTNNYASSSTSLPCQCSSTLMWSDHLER
Protocol: Human Recombinant EP1, EP2, EP3, EP4, FP, TP, IP and DP Receptors: Stable Transfectants
Plasmids encoding the human EP1, EP2, EP3, EP4, FP, TP, IP and DP receptors were prepared by cloning the respective coding sequences into the eukaryotic expression vector pCEP4 (Invitrogen). The pCEP4 vector contains an Epstein Barr virus (EBV) origin of replication, which permits episomal replication in primate cell lines expressing EBV nuclear antigen (EBNA-1). It also contains a hygromycin resistance gene that is used for eukaryotic selection. […] HEK-293 cells were grown in DMEM with 10% fetal bovine serum (FBS), 250 μg ml^−1 G418 (Life Technologies) and 200 μg ml^−1 gentamicin or penicillin/streptomycin.
For transfection, the cells were grown to 50-60% confluency on 10 cm plates. The plasmid pCEP4 incorporating cDNA inserts for the respective human prostanoid receptor (20 μg) was added to 500 μl of 250 mM CaCl2. […] After 30 min, 9 ml DMEM were added to the mixture. The DNA/DMEM/calcium phosphate mixture was then added to the cells, which had been previously rinsed with 10 ml PBS. The cells were then incubated for 5 hr at 37° C. in humidified 95% air/5% CO2. The calcium phosphate solution was then removed and the cells were treated with 10% glycerol in DMEM for 2 min. The glycerol solution was then replaced by DMEM with 10% FBS. The cells were incubated overnight and the medium was replaced by DMEM/10% FBS containing 250 μg ml^−1 G418 and penicillin/streptomycin. The following day hygromycin B was added to a final concentration of 200 μg ml^−1.
Ten days after transfection, hygromycin B resistant clones were individually selected and transferred to a separate well on a 24 well plate. At confluence each clone was transferred to one well of a 6 well plate, and then expanded in a 10 cm dish. Cells were maintained under continuous hygromycin selection until use.

IC50 [1]: 12 nM | EC50 [2]: 608 nM
SMILES: O=C(O)CCCCCCN1C(=O)CC[C@@H]1CCC(O)Cc1cccc(Cl)c1 (stereo partly drawn) [Example 1, 7-[2S-[3R-Hydroxy-4-(chloro-phenyl)-butyl]-5-oxo-pyrrolidin-1-yl]-heptanoic acid]
